Test systems include PC-3 prostate; NCI-H226 lung; HOP-92 NSCLC; SN12C renal; ACHN renal; NCI-H460 lung; UO-31 renal; HS 578T breast; HCT-15 colon; HT29 colon.
What all share (assay): NCI anticancer screen, dose series, 48 h

Data on 13 compounds can be found in PubChem BioAssay (NCI).

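Cultured in 96-well plates, cells were exposed to test compound for 48 hours across five concentrations. GI50 marks 50% less growth. TGI: concentration producing complete growth inhibition.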

`CC(=O)c1cccc(NC(=O)C(=O)c2c(O)c3ccccc3oc2=O)c1`: the TGI with PC-3 prostate, in the assay on NCI-H226 lung, with HOP-92 NSCLC, with SN12C renal, with ACHN renal and with NCI-H460 lung was above 100 µM in each case. Besides, the TGI in the assay on UO-31 renal, in the assay on HS 578T breast, in the assay on HCT-15 colon and in the assay with HT29 colon was above 100 µM throughout.
With `C=CC(C)(C)n1cc(C2=C(O)C(=O)C(c3cn(C(C)(C)C=C)c4ccccc34)=C(O)C2=O)c2ccccc21`, the TGI with PC-3 prostate was 7.13 µM; in the assay on NCI-H226 lung, 14.3 µM; with HOP-92 NSCLC, 18.9 µM; in the assay on SN12C renal, 7.03 µM; with ACHN renal, 12.9 µM; with NCI-H460 lung, 12.6 µM. The TGI in the assay on UO-31 renal amounted to 4.27 µM; with HS 578T breast, 5.11 µM; with HCT-15 colon, 5.01 µM; with HT29 colon, 16.2 µM.
As to `CC(C)(C)[Si](C)(C)OC1[C@@H](CNC(N)=O)O[C@@H](n2cnc3c(NC(=O)Nc4ccccc4)ncnc32)[C@H]1O[Si](C)(C)C(C)(C)C` (some centres undefined), the GI50 with PC-3 prostate was 0.814 µM; in the assay on NCI-H226 lung, 5.39 µM; with SN12C renal, 0.916 µM; in the assay on ACHN renal, 2.42 µM; in the assay with NCI-H460 lung it was 1.02 µM; with UO-31 renal it was 1.92 µM. The GI50 in the assay with HS 578T breast was 1.17 µM; in the assay with HCT-15 colon it was 2.67 µM; in the assay with HT29 colon, 1.07 µM. Moreover, the TGI in the assay on PC-3 prostate was determined as 1.99 µM; with NCI-H226 lung, 11.7 µM; with SN12C renal, 1.84 µM; in the assay with ACHN renal it was 8.62 µM; with NCI-H460 lung, 1.98 µM; in the assay on UO-31 renal, 8.29 µM. For the same compound, the TGI was 3.02 µM in the assay with HS 578T breast, 10.3 µM in the assay on HCT-15 colon and 2.22 µM with HT29 colon.
Regarding `NC(=O)c1cccnc1`, the GI50 with PC-3 prostate, with NCI-H226 lung, with HOP-92 NSCLC, in the assay on SN12C renal, with ACHN renal and in the assay with NCI-H460 lung was above 100 µM in each case. Moreover, the GI50 in the assay with HS 578T breast, in the assay with HCT-15 colon and with HT29 colon was above 100 µM throughout. For the same compound, the TGI with PC-3 prostate, in the assay with NCI-H226 lung, in the assay with HOP-92 NSCLC, in the assay on SN12C renal, with ACHN renal and in the assay on NCI-H460 lung was above 100 µM throughout. Moreover, the TGI in the assay on HS 578T breast, in the assay with HCT-15 colon and in the assay on HT29 colon was above 100 µM throughout.
Consider `COc1ccc(C2=NC(=O)NC2c2ccc(OC)cc2)cc1` (centres undefined), for which the GI50 is 14.8 µM with NCI-H226 lung; 1.95 µM in the assay with HOP-92 NSCLC; 15.4 µM with SN12C renal; 21.9 µM in the assay with ACHN renal; 6.73 µM in the assay on NCI-H460 lung; 20.7 µM in the assay on UO-31 renal. For the same compound, the GI50 in the assay on HS 578T breast is 7.18 µM; in the assay on HCT-15 colon it was 4.78 µM; in the assay on HT29 colon, 3.78 µM. Besides, the TGI with NCI-H226 lung was above 100 µM; in the assay with HOP-92 NSCLC it was 30.5 µM; with SN12C renal it was above 100 µM; in the assay with ACHN renal, above 100 µM; in the assay on NCI-H460 lung, 51.8 µM; in the assay on UO-31 renal, above 100 µM. For the same compound, the TGI in the assay with HS 578T breast was 48.5 µM; in the assay with HCT-15 colon, above 100 µM; in the assay with HT29 colon it was 27.9 µM.
Regarding `COc1cc(OC)c2sc(-c3ccc(-n4cncc4-c4ccc(OC)c(OC)c4)cc3)nc2c1`, the GI50 is 3.66 µM in the assay on PC-3 prostate; 6.44 µM in the assay with NCI-H226 lung; above 100 µM in the assay on SN12C renal; above 100 µM with ACHN renal; 6.06 µM in the assay on NCI-H460 lung; above 100 µM with HCT-15 colon. Besides, in the assay on HT29 colon, the GI50 is 7.13 µM. For the same compound, the TGI in the assay on PC-3 prostate, in the assay with NCI-H226 lung, with SN12C renal, with ACHN renal, with NCI-H460 lung and in the assay on HCT-15 colon was above 100 µM in each case. In the assay on HT29 colon, this compound displayed a TGI above 100 µM.
For the compound `COc1ccc(C(=O)c2sc3nc(-c4ccccc4OC)ccc3c2N)cc1OC`, the GI50 in the assay with PC-3 prostate is 2.84 µM; in the assay on NCI-H226 lung it was 5.13 µM; in the assay with SN12C renal, 7.95 µM; in the assay with ACHN renal it was 7.24 µM; in the assay on NCI-H460 lung, 9.61 µM; in the assay with UO-31 renal, 5.26 µM. The GI50 with HS 578T breast was 4.26 µM; in the assay with HCT-15 colon it was 6.13 µM; in the assay with HT29 colon it was 4.9 µM. Also, the TGI with PC-3 prostate is 35.1 µM; in the assay on NCI-H226 lung, above 100 µM; in the assay on SN12C renal, above 100 µM; in the assay with ACHN renal it was above 100 µM; in the assay on NCI-H460 lung, above 100 µM; in the assay with UO-31 renal, above 100 µM. The TGI in the assay with HS 578T breast was 74.2 µM; in the assay with HCT-15 colon it was above 100 µM; in the assay with HT29 colon, above 100 µM.
For `CC(/C=C/C(O)=C1/C(=O)CNC1=O)=C\[C@@H](C)[C@H]1O[C@@]2(C)O[C@H](C(=O)[C@@H]3O[C@@]32C)[C@@H]1C`, the TGI in the assay with PC-3 prostate is 31.8 µM; in the assay on NCI-H226 lung it was 54.4 µM; in the assay on SN12C renal, 47.3 µM; in the assay on ACHN renal it was 41.9 µM; with UO-31 renal, 33.2 µM; in the assay with HS 578T breast it was 52.1 µM. For the same compound, the TGI with HCT-15 colon was determined as 49.6 µM; in the assay with HT29 colon, 47 µM.
With `CC(C)(C)NCC(O)COc1c(Br)c(Br)c(Br)c2c1OC(C)(C)C2` (centres undefined), the GI50 in the assay with PC-3 prostate is 1.66 µM; in the assay on HOP-92 NSCLC, 1.52 µM; with SN12C renal, 1.87 µM; in the assay on ACHN renal it was 1.9 µM; in the assay with NCI-H460 lung, 1.77 µM; in the assay with UO-31 renal, 1.76 µM. Also, the GI50 is 1.89 µM in the assay on HCT-15 colon and 1.34 µM with HT29 colon. Besides, the TGI in the assay on PC-3 prostate was 3.18 µM; in the assay with HOP-92 NSCLC, 3.17 µM; with SN12C renal it was 3.43 µM; in the assay on ACHN renal it was 3.35 µM; in the assay with NCI-H460 lung, 3.28 µM; in the assay with UO-31 renal, 3.23 µM. The TGI in the assay on HCT-15 colon was determined as 3.4 µM; in the assay on HT29 colon, 2.75 µM.
For `Cc1cc(NCc2cc(Nc3ccnc4cc(Cl)ccc34)ccc2F)nc(N2CCOCC2)n1`, the GI50 was 2.28 µM with PC-3 prostate; 1.89 µM in the assay on NCI-H226 lung; 1.34 µM in the assay on HOP-92 NSCLC; 1.84 µM in the assay with SN12C renal; 2 µM in the assay with NCI-H460 lung; 1.3 µM with UO-31 renal. The GI50 was 2.07 µM with HS 578T breast and 2.21 µM in the assay on HT29 colon. For the same compound, the TGI is 7.65 µM in the assay on PC-3 prostate; 5.61 µM in the assay on NCI-H226 lung; 3.13 µM with HOP-92 NSCLC; 4.3 µM in the assay with SN12C renal; 4.77 µM in the assay with NCI-H460 lung; 2.71 µM in the assay on UO-31 renal. Further, the TGI in the assay with HS 578T breast worked out at 6.97 µM; in the assay with HT29 colon, 5.68 µM.
As to `COc1ccc(-c2cnnn2-c2nonc2-n2cccc2)cc1OC`, the GI50 is 14.1 µM with PC-3 prostate; 16.2 µM in the assay with NCI-H226 lung; 5.71 µM in the assay on SN12C renal; 7.8 µM in the assay on ACHN renal; 3.75 µM in the assay on NCI-H460 lung; 6.27 µM with UO-31 renal. In addition, the results for the GI50 in the assay on HS 578T breast, in the assay with HCT-15 colon and in the assay with HT29 colon were 4.55 µM, 2.38 µM and 3.31 µM, respectively. For the same compound, the TGI with PC-3 prostate, with NCI-H226 lung, with SN12C renal, in the assay with ACHN renal, in the assay with NCI-H460 lung and in the assay on UO-31 renal was above 100 µM each time. The values for the TGI in the assay with HS 578T breast, in the assay on HCT-15 colon and in the assay on HT29 colon were 75.7 µM, above 100 µM and above 100 µM, respectively.
For the compound `C=C(CN1CCc2c([nH]c3ccccc23)C1)c1ccc(C(=O)Nc2ccccc2N)cc1`, the GI50 in the assay on PC-3 prostate is 1.41 µM; in the assay on NCI-H226 lung, 1.32 µM; in the assay with HOP-92 NSCLC, 1.66 µM; in the assay with SN12C renal, 2.33 µM; in the assay with ACHN renal, 1.74 µM; in the assay on NCI-H460 lung, 3.57 µM. For the same compound, the figures for the GI50 in the assay with UO-31 renal, with HS 578T breast and with HCT-15 colon were 3.53 µM, 4.75 µM and 3.5 µM, respectively. For the same compound, the TGI worked out at 29.9 µM in the assay on PC-3 prostate; 10.1 µM with NCI-H226 lung; 11.4 µM in the assay with HOP-92 NSCLC; 9.98 µM with SN12C renal; 10.4 µM in the assay on ACHN renal; 21 µM in the assay on NCI-H460 lung. Moreover, the TGI amounted to 9.89 µM in the assay with UO-31 renal, 23.3 µM in the assay with HS 578T breast and 28.1 µM with HCT-15 colon.
As to `ClCc1cccc(Cn2cnc3c(Cl)nc(Cl)nc32)c1`, the GI50 in the assay with PC-3 prostate was 2.38 µM; with NCI-H226 lung it was 3.24 µM; in the assay with HOP-92 NSCLC, 1.84 µM; in the assay on SN12C renal it was 2.14 µM; with ACHN renal it was 1.91 µM; in the assay with NCI-H460 lung, 2.36 µM. Further, the GI50 in the assay on UO-31 renal is 1.58 µM; in the assay on HCT-15 colon it was 2.41 µM; with HT29 colon, 2.39 µM. Besides, the TGI in the assay on PC-3 prostate is 5.02 µM; with HOP-92 NSCLC, 3.63 µM; with SN12C renal, 4.66 µM; in the assay on ACHN renal it was 3.72 µM; in the assay with NCI-H460 lung it was 6.25 µM; with UO-31 renal, 3.06 µM. The TGI with HCT-15 colon was 6.84 µM; in the assay on HT29 colon, above 100 µM.
